Results published in patent US8986652B2, “Method of preparing [123I]iodooctyl fenbufen amide and application thereof” (National Tsing Hua University, priority 2012, dated 2015).
Like-named read-outs stand apart in the source and are kept apart here. Values belong to the molecule of their own block, whether it stands above or below them.

What was measured:
[1] = molecular target: T1, COX-2 (Homo sapiens, UniProt P35354); details: read-out: IC50 value COX-2, lit. data; literature data; cited from earlier work
T1 sequence (P35354 18-604): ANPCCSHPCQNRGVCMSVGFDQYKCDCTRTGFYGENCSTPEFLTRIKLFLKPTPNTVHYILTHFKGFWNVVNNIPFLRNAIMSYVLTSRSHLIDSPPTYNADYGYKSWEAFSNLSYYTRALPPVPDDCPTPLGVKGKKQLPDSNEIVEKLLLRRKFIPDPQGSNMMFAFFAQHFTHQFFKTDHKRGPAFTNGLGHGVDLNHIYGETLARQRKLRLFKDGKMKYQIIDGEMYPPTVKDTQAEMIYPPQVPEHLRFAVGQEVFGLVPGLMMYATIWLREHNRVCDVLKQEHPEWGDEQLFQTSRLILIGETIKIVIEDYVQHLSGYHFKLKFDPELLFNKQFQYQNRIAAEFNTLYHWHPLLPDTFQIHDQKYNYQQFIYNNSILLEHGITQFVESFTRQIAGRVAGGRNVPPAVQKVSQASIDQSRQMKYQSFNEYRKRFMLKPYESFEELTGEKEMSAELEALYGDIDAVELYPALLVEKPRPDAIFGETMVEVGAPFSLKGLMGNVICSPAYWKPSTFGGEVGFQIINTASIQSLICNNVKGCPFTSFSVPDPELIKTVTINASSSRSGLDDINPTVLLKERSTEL

[2] = molecular target: T2, COX-2 (Ovis aries, UniProt P79208); assay: Colorimetric COX inhibitor screening assay (competitive inhibition of substrate transfer, CIST), COX-2; type: biochemical; details: colorimetric COX (ovine) kit; read-out: IC50 value COX-2, this assay
T2 construct: purchased Cayman Chemical Ltd 760111
T2 sequence (P79208 17-603): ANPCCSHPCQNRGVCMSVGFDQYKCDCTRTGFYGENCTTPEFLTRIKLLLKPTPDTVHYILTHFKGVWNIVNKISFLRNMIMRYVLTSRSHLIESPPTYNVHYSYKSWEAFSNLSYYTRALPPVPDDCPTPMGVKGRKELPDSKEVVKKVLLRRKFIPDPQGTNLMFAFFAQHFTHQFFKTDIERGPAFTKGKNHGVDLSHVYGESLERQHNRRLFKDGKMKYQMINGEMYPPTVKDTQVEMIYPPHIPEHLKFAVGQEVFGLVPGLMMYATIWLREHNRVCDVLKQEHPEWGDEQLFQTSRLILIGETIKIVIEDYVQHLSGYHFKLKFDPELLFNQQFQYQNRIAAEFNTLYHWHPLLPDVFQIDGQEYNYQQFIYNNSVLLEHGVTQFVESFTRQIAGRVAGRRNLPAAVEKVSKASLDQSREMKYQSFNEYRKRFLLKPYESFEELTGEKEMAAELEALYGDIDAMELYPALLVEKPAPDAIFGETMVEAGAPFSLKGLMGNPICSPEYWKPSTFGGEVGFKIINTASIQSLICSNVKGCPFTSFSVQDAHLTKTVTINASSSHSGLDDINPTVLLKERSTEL

[3] = molecular target: COX-1 (Homo sapiens, UniProt P23219); details: read-out: IC50 value COX-1, lit. data; literature data; cited from earlier work
[4] = molecular target: T3, COX-1 (Ovis aries, UniProt P05979); assay: Colorimetric COX inhibitor screening assay (competitive inhibition of substrate transfer, CIST), COX-1; type: biochemical, ovine
T3 construct: purchased Cayman Chemical Ltd 760111
T3 sequence (P05979 25-600): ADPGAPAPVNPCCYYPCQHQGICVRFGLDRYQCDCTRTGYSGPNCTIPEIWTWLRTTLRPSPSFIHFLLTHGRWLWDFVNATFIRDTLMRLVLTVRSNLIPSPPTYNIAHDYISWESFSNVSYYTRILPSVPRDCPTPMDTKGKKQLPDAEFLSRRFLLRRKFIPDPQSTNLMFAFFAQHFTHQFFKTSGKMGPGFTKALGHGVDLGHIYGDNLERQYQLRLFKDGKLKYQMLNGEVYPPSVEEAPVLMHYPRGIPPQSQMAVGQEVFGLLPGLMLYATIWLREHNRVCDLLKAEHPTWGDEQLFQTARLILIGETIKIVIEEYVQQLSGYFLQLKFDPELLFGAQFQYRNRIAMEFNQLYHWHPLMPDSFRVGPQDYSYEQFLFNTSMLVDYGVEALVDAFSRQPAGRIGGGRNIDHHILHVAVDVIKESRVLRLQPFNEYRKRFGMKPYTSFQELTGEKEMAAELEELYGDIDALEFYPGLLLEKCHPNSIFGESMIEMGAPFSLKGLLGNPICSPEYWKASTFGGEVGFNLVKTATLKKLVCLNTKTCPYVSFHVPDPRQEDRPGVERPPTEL

[5] = test system: NO; details: antioxidant (e.g. NO) assay; cited from earlier work
[6] = molecular target: T2, COX-2; assay: Radioligand binding assay by gel filtration HPLC, COX-2; parameters: species or system ovine; details: for Binding yield (bound conjugate, accumulated radioactivity fraction) with COX-2: 25° C., 15 min incubation, peak at 5 min / (5 min + 13.6 min)
Procedure: (§1) The compound of formula 1 was purified by a set of HPLC consisting of the components of a Waters 510 pump, a linear UVIS detector (254 nm) in series with a Berthhold γ-flow detector, on a ZORBAX SIL column (250 mm×9.4 mm, 5 μm) at 3 mL/min with MeOH/CHCl3=1/99 as the mobile phase. Quality analysis of The compound of formula 1 was performed on the same HPLC setup as described above. The settings for radioactive ligand binding assay included a gel filtration column of TSKgel G3000PWx1 7.5×300 (mm) with a particle size of 10 μm which was purchased from Tosoh Bioscience LLC. The corresponding eluting conditions including PBS buffer and flow rate of 1 mL/min were employed throughout the experiment. The identity of The compound of formula 1 was confirmed with the compound of formula 2 on HPLC chromatogram after coinjection. The peak area of the UV absorbance at 254 nm that should correspond to the compound of formula 2 was calculated by interpolating to the standard curve relating mass to UV absorbance. Only a specific activity below 36 GBq/μmol can be measured accurately. Radioactive measurements were performed by a Capintec R15C dose calibrator.
(§2) The binding experiment was carried out in an eppendorf (0.2 mL) and stood for 10 min for equilibrium. An aliquot (10 μL) was drawn from the commercial stock solution (200 μL). Additional 30 μL of tris buffer (0.1 M, pH=8.0) was added. The solution (40 μL) of COX-1 or COX-2 each was added into a tris buffer (50 μL) together with the addition of a solution of the radiotracer the compound of formula 1 in EtOH with concentration ranging from 66 μCi/10 μL to 70 μCi/10 μL. The whole mixture (100 μL) was incubated at 25° C. for 15 min followed by submission to purification using HPLC. PBS buffer (0.1 M, pH=7.3) was employed as the eluent and the flow rate was set to be 1 mL/min.
(§3) The assay was based on that the retention time of the bound complex between radiolabeled ligand and enzyme was different from that of the unbound ligand in HPLC. […]

[7] = molecular target: T3, COX-1; assay: Radioligand binding assay by gel filtration HPLC, COX-1; parameters: species or system ovine; details: for Binding yield (bound conjugate, accumulated radioactivity fraction) with COX-1: 25° C., 15 min incubation, peak at 5 min / (5 min + 13.6 min)
Procedure: as §1, §2, §3

[8] = test system: thioacetamide-induced cholangiocarcinoma (CCA) rat; assay: SPECT/CT imaging in normal rat and thioacetamide-induced cholangiocarcinoma (CCA) rat; type: in vivo; details: tail vein
Procedure: All in vivo experiments were performed in compliance with the Taiwan National Health and Medical Research Council (NHMRC) Code of Practice for the care and use of animals for scientific purposes. Male-, Sprague-Dawley (SD) rats ([…]) were obtained from the Animal Research Center (Chang-Gung Memorial Hospital, Taiwan). Rats were housed under constant environmental conditions and were allowed free access to food and water throughout the experimental period. In vivo studies were performed in a thioacetamide-induced cholangiocarcinoma (CCA) rat (37th week post administration) along with a normal rat as a control.
The rats were anaesthetized via inhalant isoflurane (Forthane, Abott) in 200 mL/min oxygen during the imaging study. […]
The compound of formula 1 (0.76 mCi/1 mL) was administered by the CCA rat via tail vein injection to obtain a summation of one-hour Single Photon Emission Computer Tomography (SPECT) imaging data (FIG. 4(A)). The normal rat was injected with the residual radioactivity of the compound of formula 1 (1.39 mCi/1 mL) (FIG. 4 (B)). All in vivo experiments were performed in compliance with the NHMRC Taiwan Code of Practice for the care and use of animals for scientific purposes, and the raw data from the image further analyzed by Preclinical Multi-Modality Data Analysis software (PMOD Technologies Ltd, Zurich, Switzerland).

[9] = test system: rat liver tumor lesion; details: cited from earlier work
[10] = colorimetric COX (ovine) kit, read-out: IC50 value COX-1, this assay

COX-1 (Homo sapiens, UniProt P23219), sequence (P23219 24-599): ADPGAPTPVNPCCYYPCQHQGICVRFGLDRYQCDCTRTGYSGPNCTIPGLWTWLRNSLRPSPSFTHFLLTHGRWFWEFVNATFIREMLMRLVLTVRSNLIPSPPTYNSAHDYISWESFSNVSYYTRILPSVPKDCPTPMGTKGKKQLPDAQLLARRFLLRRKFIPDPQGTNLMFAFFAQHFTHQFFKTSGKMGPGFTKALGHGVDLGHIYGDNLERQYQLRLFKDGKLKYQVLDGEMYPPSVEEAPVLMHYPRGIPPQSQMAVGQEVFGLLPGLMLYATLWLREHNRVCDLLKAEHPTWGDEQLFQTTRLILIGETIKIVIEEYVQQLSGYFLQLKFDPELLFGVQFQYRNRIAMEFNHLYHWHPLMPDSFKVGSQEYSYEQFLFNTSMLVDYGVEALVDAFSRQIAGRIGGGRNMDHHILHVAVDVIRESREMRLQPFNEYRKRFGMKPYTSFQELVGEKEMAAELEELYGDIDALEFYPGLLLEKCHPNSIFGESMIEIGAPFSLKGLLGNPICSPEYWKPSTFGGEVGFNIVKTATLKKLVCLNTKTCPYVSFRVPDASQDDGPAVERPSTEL

Molecule: Octyl fenbufen amide [OFA]
Anti inflammatory effect [5]: marginal

Molecule: CCCCCCCCNC(=O)CCC(=O)c1ccc(-c2ccc([123I])cc2)cc1 [compound of formula 1, 4-(4′-[^123I]iodobiphenyl-4-yl)-N-octyl-4-oxobutanamide]
Binding yield (bound conjugate, accumulated radioactivity fraction) with COX-2 [6]: 79% | Intact (unbound) form remained, COX-2 binding experiment ([6]; peak at 13.6 min): 21% | Binding yield (bound conjugate, accumulated radioactivity fraction) with COX-1 [7]: 56% | Intact (unbound) form remained, COX-1 binding experiment ([7]; peak at 13.6 min): 44% | In-vivo distribution of radioactivity, SPECT ([8]; CCA tumor rat, 0.76 mCi/1 mL): a heterogeneous radioactivity accumulation was addressed in the liver | In-vivo distribution of radioactivity, SPECT ([8]; normal rat, 1.39 mCi/1 mL, 30 mins post administration): a homogeneous pattern, which was localized mainly in the liver and partly in the heart

Molecule: C=C(CC)C(=O)c1ccc(OCC(=O)NCCCC[18F])c(Cl)c1Cl [[^18F]FBuEA, [^18F]-N-(4-fluorobutyl)ethacrynic amide]
Image of tumor lesion [9]: only shows the image of cold spot

Molecule: Oc1ccc(C=Cc2cc(O)cc(O)c2)cc1 [Resveratrol]
IC50 [4]: 3.9 µM

More lines, main results first:

IC50 [2]: > 10 µM | IC50 [4, 10]: > 10 µM
Molecule: O=C(O)CCC(=O)c1ccc(-c2ccccc2)cc1 [fenbufen]
IC50 [1]: 8.1 µM | IC50 [3]: 3.9 µM

IC50 [2]: > 10 µM | IC50 [4, 10]: > 10 µM
Molecule: O=c1ccn([C@@H]2O[C@H](CO)[C@@H](O)[C@H]2O)c(=O)[nH]1 [uridine]

Binding yield (bound conjugate, accumulated radioactivity fraction) with COX-2 [6]: 76% | IC50 [2]: > 10 µM | melting point: 181 to 182 °C | Binding yield (bound conjugate, accumulated radioactivity fraction) with COX-1 [7]: 56% | IC50 [4, 10]: > 10 µM
Molecule: CCCCCCCCNC(=O)CCC(=O)c1ccc(-c2ccc(I)cc2)cc1 [compound of formula 2, 4-(4′-iodobiphenyl-4-yl)-n-octyl-4-oxobutanamide]
